Source: ChEMBL document CHEMBL5726408, “Compounds for treatment of complement mediated disorders” (2017)

Target: Complement factor D (Homo sapiens, UniProt P00746)
Assay: Inhibition Assay: Human factor D (purified from human serum, Complement Technology, Inc.) at 80 nM final concentration is incubated with test compound at various concentrations for 5 minutes at room temperature in 50 mM Tris, 1M NaCl, pH 7.5. A synthetic substrate Z-L-Lys-SBzl and DTNB (Ellman's reagent) are added to final concentrations of 10 μM each. The increase in color is recorded at OD405 nm in a microplate in kinetic mode over 30 minutes with 30 second time points in a […]. IC50 values are calculated by non-linear regression from the percentage of inhibition of complement factor D activity as a function of test compound concentration.

Complement factor D, sequence (P00746 whole entry): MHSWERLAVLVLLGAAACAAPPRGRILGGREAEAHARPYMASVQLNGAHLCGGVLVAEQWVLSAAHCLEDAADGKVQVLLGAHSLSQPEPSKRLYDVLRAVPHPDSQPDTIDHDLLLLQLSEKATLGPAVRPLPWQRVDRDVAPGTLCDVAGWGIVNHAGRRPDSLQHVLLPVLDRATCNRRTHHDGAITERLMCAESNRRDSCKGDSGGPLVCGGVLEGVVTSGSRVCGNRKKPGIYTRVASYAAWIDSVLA

Structure (SMILES)	IC50
NC(=O)c1nn(CC(=O)N2C[C@H](F)C[C@H]2C(=O)Nc2cccc(Br)n2)c2c1C=CC1N=C(c3cccc(Cl)c3)N=C21 (some centres not stated)	< 1000 nM
NC(=O)c1cn(CC(=O)N2C[C@H](F)C[C@H]2C(=O)Nc2cccc(-c3ccccc3Cl)c2F)c2ccsc12	< 1000 nM
